Source: PMC7175277, “Hydroxylamine Analogue of Agmatine: Magic Bullet for Arginine Decarboxylase” (Biomolecules, 2020)
“Also recorded” adds a separate entry of the source.

How the values were obtained:
[1] = parameters: method as in PMID 7896733; settings: 48 h; absence of amine oxidase inhibitor; cited from earlier work
[2] = tested on: Acremonium chrysogenum high-cephalosporin-yielding (HY) RNCM F-4081D; assay: Fungal growth inhibition (drop-dilution, CD agar), HY strain; type: cell-based
From the text: (§1) Two strains of Acremonium chrysogenum were used in this study: the wild-type (Brotzu) isolate ATCC 11550 (WT) and high-cephalosporin-yielding RNCM F-4081D (HY), derived from the WT [37]. The cultivation conditions were the same as previously described. The filamentous fungi were cultivated on agarized Czapek-Dox (CD) medium (30 g/L sucrose, 2 g/L NaNO3, 1 g/L K2HPO4, 0.5 g/L MgSO4×7 H2O, 0.5 g/L KCl, 0.01 g/L FeSO4×7 H2O, 20 g/L agar, pH 7.0–7.4). To determine the toxic effect of AO-Agm, APA, DFMA and DFMO on the growth of fungal cells the drop-dilution method was used with some modifications as described earlier. Cells were collected from agar slants and diluted with 0.9% NaCl solution up to OD600 = 0.5 (basic concentration), followed by serial tenfold dilutions with the same solution. […] The inoculated Petri dishes were incubated for 21 days at 26 °C. The inhibitory effects of the compounds were measured every three days after inoculation and evaluated by measuring the ratio of colony growth on agarized CD medium supplemented with AO-Agm, APA, DFMA, or DFMO to the growth in the control (agarized CD medium without any additions). The formula: growth inhibition % = [(Dc − Dt)/Dc] × 100, where Dc indicates the colony diameter in control set, and Dt indicates the colony diameter in the treatment set that was used to determine the percent of fungal growth inhibition. The data recorded were measured in triplicate and repeated at least twice.

E. coli ADC [3] = target: T1, E. coli ADC (Escherichia coli, UniProt P21170); assay: E. coli ADC activity assay (HPLC of agmatine); type: biochemical; settings: 0.1 mM PLP; 15 min preincubation; 0.15 mM L-Arg
T1 construct: The kinetic parameters determined for the partially purified biosynthetic ADC from E. coli; endogenous in cells; host or cells: E. coli DH5α (39-53% ammonium sulphate fraction of the lysate, desalted)
T1 sequence (P21170 1-658): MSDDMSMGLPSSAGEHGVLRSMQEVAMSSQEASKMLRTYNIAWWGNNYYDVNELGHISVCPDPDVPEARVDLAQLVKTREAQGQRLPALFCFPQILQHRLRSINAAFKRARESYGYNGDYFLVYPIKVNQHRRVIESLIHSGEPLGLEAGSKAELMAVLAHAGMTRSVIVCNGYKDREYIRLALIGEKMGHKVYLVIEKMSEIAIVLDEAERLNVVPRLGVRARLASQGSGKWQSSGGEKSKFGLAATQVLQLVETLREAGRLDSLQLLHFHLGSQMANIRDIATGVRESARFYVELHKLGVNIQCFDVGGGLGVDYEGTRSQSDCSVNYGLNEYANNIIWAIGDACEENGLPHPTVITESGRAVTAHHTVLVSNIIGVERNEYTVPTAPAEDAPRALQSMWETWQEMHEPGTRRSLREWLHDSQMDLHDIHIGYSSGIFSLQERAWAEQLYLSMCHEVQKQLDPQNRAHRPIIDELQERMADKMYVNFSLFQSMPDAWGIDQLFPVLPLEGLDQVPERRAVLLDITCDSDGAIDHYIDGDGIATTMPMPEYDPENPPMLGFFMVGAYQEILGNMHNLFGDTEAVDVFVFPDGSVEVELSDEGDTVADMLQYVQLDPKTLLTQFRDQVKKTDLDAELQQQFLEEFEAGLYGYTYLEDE
Description: The purification was performed using a modified procedure of earlier publication. E. coli strain DH5α was grown in Luria-Bertani broth at +37 °C with shaking (200 rpm) overnight. The cells were collected by centrifugation and the pellet was homogenized with Potter-Elvehjem in 10 volumes (w/v) of ice-cold 50 mM Tris-HCl pH 7.4, 1 mM DTT. The cell debris was removed by centrifugation at 12,000 g for 30 min at +4 °C. Solid (NH4)2SO4 was added to the supernatant, and the pellet precipitating between 39% and 53% saturation was separated. The precipitate was resuspended in ice-cold buffer containing 50 mM Tris-HCl pH 7.4 and 1 mM DTT and desalted by passage through Sephadex G-25 column (NAP-10 column, GE Healthcare). The protein concentration was measured with Bio-Rad protein reagent, and the partially purified enzyme preparation was mixed with 20% glycerol and aliquoted for storage at −80 °C.
[…] The ODC reaction mixture contained 50 mM Tris-HCl pH 7.8, 1 mM EDTA, 2.4 mM DTT, 0.1 mM PLP and 20 μg of partially purified enzyme preparation. The mixtures were either preincubated or not preincubated for 15 min at +40 °C in the presence of the inhibitor, after which the reaction was started by the addition of 18 μL of 10× substrate (L-Arg for ADC and L-Orn for ODC). After incubation for 30 min (ADC) or 20 min (ODC) at +40 °C, 20 μL of 50% sulphosalicylic acid containing 50 μM diaminoheptane (internal standard) was added and the samples were analyzed for the content of agmatine (ADC) and Put (ODC) with HPLC as described previously. The kinetic parameters and IC50 values were determined with the aid of GraphPad Prism version 5.03 using nonlinear regression analysis.

mammalian ODC = tested on: mammalian ODC; parameters: method as in PMID 3841480, PMID 1573631; settings: cited from earlier work
[4] = tested on: Acremonium chrysogenum wild-type (WT) ATCC 11550; assay: Fungal growth inhibition (drop-dilution, CD agar), WT strain; type: cell-based
From the text: as §1

mouse kidney ODC = target: T2, mouse kidney ODC (Mus musculus, UniProt P00860); parameters: method as in PMID 6810923; settings: reversibly bound PLP; cited from earlier work
T2 construct: Aliquots of the supernatant were mixed with 1–5000 μM of AO-Agm and the ODC assay was carried out; from tissue; host or cells: C57Bl/6J male mouse kidney, 12,000 g supernatant of the homogenate
T2 sequence (P00860 1-461): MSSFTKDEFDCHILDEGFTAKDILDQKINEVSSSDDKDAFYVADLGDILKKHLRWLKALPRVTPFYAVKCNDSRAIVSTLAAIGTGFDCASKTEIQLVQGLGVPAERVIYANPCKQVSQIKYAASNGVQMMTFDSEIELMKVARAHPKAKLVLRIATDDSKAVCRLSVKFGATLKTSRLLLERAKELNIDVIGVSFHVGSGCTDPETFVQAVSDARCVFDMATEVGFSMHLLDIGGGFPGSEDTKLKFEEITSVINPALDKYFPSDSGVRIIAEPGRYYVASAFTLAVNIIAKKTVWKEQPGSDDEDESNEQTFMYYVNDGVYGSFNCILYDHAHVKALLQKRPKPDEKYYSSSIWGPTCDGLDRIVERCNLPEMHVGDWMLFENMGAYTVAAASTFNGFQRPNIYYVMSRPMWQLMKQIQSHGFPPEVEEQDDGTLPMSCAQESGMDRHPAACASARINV

E. coli ADC [5] = target: T1, E. coli ADC; parameters: method as in PMID 4571773; settings: PLP binding to the apo-enzyme; cited from earlier work

Structure (SMILES) | Level remaining in the cell culture medium, of its initial concentration [1] | Growth inhibition compared with 5 mM ([2]; HY strain, 1 mM inhibitor) | inhibition at 5000 µM ([2]; Hapsidospora chrysogena, 336 h, read-out: Growth inhibition) | ADC inhibition relative to AO-Agm (weaker) (E. coli ADC [3]) | IC50 (E. coli ADC [3]) | Concentrations inhibiting mammalian ODC (mammalian ODC) | Growth of WT strain ([4]; 5 mM inhibitor) | Effect of 0.5 mM Spd on the growth arrest caused by the inhibitor ([4]; 5 mM inhibitor + 0.5 mM Spd) | inhibition at 1000 µM ([4]; Hapsidospora chrysogena, ATCC11550, 1 mM inhibitor, 17th day after inoculation) | inhibition at 5000 µM ([4]; Hapsidospora chrysogena, ATCC11550, 336 h, 5 mM inhibitor, 14 days after inoculation on CD medium) | Km (mouse kidney ODC) | Km (E. coli ADC [5])
NCCCON [APA, 1-aminooxy-3-aminopropane] | about 10% | much less effective | 44% | 1000 times | 33 ± 2 µM | nanomolar inhibitor; also recorded: nanomolar concentrations | completely inhibited | reversed the growth arrest | ~95% | 100% |  | 
Cc1ncc(COP(=O)(O)O)c(C=O)c1O [PLP, pyridoxal-5’-phosphate] |  |  |  |  |  |  |  |  |  |  | 0.3 µM | 0.6 µM
